The source of these data is patent US20140113964A1, “METHOD OF PREVENTING AND TREATING ALLERGIC AIRWAY DISEASES VIA INTRANASAL GABEXATE MESILATE” (priority 2012, published 2014).

Series [1] concerns protease activity of CraA. Description: azocasein assay of the protease activity of CraA with protease inhibitors. Format: biochemical, American cockroach. To be noted: azocasein substrate, 37° C., 30 mins, absorbance at 440 nm; FIG. 1. On the procedure: In brief, azocasein was used as a substrate to measure the protease activity of CraA. Twenty μL of CraA was added into 80 μL azocasein solution (0.5% (w/v), lysed in 100 mM phosphate buffer) and incubated in 37° C. water bath for 30 mins. Afterwards, 20 μL of 10% trichloroacetic acid was added to stop the reaction. Further, the mixture was centrifuged with 6000 g for 10 mins. Consequently, 50 μL of supernatant was mixed with 50 μL of NaOH (0.2N), and the absorbance was measure at 440 nm. Moreover, various protease inhibitors were applied to inhibit the protease activity of CraA, for instance, PMSF (serine protease), aprotinin (serine protease), pepstatin (aspartic acid protease), E-64 (cysteine protease) and EDTA (metalloprotease), so as to confirm the serine protease activity of CraA.
With reference to FIG. 1 for a schematic view of inhibition of protease activity of CraA in accordance with an embodiment of the present invention, the protease activity inhibition was shown after treatment of different kinds of […].

The next series deals with murine asthma model. To be noted: intra-peritoneal injection; cited from earlier work.
A further series concerns IL-8 and MCP-1 proteins. Description: IL-8 and MCP-1 protein levels in Beas2B cells treated with CraA. Format: cell-based, Human. To be noted: pre-treatment 30 mins, then 5 μg/mL CraA, time courses; FIG. 8. On the procedure: With reference to FIGS. 6-8 for a schematic view of protection effects of gabexate mesilate (GM) on Beas2B cells treated with CraA, a schematic view of chemokines detected by RT-PCR in Beas2B cells treated with CraA and gabexate mesilate and a quantification result of IL-8 and MCP-1 proteins in Beas2B cells treated with CraA and gabexate mesilate in accordance with an embodiment of the present invention, 3×10^5 Beas2B cells were seeded in a 6-well plate and subsequently treated with gabexate mesilate for 30 mins. Afterwards, the cells were further treated with 5 μg/mL of CraA. Consequently, the cells were either observed by bright field microscope and analyzed the gene expression and the protein level of the cytokines, such as IL-8, MCP-1, GM-CSF and CCL20, as mentioned above.

Series [2] has as its system Beas2B cells. Description: cell viability of Beas2B cells, trypan blue staining and counting. Format: cell-based, Human. How it is done:
With reference to FIG. 5 for a schematic view of cell viability of Beas2B cells treated with gabexate mesilate (GM) in accordance with an embodiment of the present invention, 3×10^5 Beas2B cells were seeded in a 3.5-cm dish with subsequently starvation for 16 hrs. After treating the cells with gabexate mesilate of various concentrations for 24 hrs, the cells were stained with trypan blue and counted the numbers of total cells, dead cells and survived cells so as to convert the numbers into a viability of the cells.
Referring to FIG. 5, the IC50 of the cells to gabexate mesilate is 600 μg/mL, that is, the cell viability with respect to gabexate mesilate at concentration of 600 μg/mL is 50%. […] Accordingly, the pharmaceutical effective amount of the composition comprising gabexate mesilate may be between 1-600 μg/mL, preferably between 10-300 μg/mL.

The subject of series [3] is IL-8, MCP-1, GM-CSF and CCL20 genes. Description: RT-PCR of chemokine genes (IL-8, MCP-1, GM-CSF, CCL20) in Beas2B cells treated with CraA. Format: cell-based, Human. To be noted: pre-treatment 30 mins, then 5 μg/mL CraA, increasing doses; FIG. 7.
Protocol: Referring to FIG. 4, the mRNA levels of various cytokines in response to treatment of CraA was measured by RT-PCR. To be brief, 3×10^5 Beas2B cells were seeded in a 6-well plate and treated with 5 μg/mL of CraA for 1, 2, 3, 4, 5, 16 and 24 hrs, respectively. After the treatment, the cells were harvested by TRIzol (Invitrogen), and RNA of the cells was extracted. The extracted RNA was reverse-transcribed into cDNA by SuperScript polymerase (Invitrogen) according to the manufacturer's instruction. Moreover, IL-8, MCP-1, GM-CSF and CCL20 genes were amplified by RT-PCR and analyzed by 2% agarose gel. The expression levels of the above mentioned genes were normalized with the expression of β-actin.
Series [4] has as its system Beas2B cells. Description: CraA-induced dissociation of Beas2B cells, bright field microscope. Format: cell-based, Human. To be noted: 36, 75, 150 or 300 μg/mL gabexate mesilate for 30 mins, then 5 μg/mL CraA; FIG. 6.
Protocol: With reference to FIG. 2 is a schematic view of Beas2B cells treated with various doses of CraA in accordance with an embodiment of the present invention, 3×10^5 Beas2B cells were seeded in a 6-well plate and treated with 0, 5, 10, 20, 30 and 40 μg/mL of CraA, respectively. Afterwards, the cells were observed by the bright field microscope.

Where a SMILES comes first, the peptide text is derived from it. [ ]: non-standard residue; d: D form. The star is where a group is joined. Sta = CC(C)C[C@H](N)[C@@H](O)CC(=O)O; Isovaleryl = CC(C)CC(=O)*

In the case of `O=S(=O)(F)Cc1ccccc1` [PMSF], in series [1], the “inhibition of the protease activity of CraA” value (“inhibition” below) is “obviously inhibited”.

As for `CC(C)C[C@H](NC(=O)[C@H]1O[C@@H]1C(=O)O)C(=O)NCCCCN=C(N)N` [E-64], the “inhibition” value in series [1] is given as “not significantly inhibited”.

For `CC(C)CC(=O)N[C@H](C(=O)N[C@H](C(=O)N[C@@H](CC(C)C)[C@@H](O)CC(=O)N[C@@H](C)C(=O)N[C@@H](CC(C)C)[C@@H](O)CC(=O)O)C(C)C)C(C)C` [pepstatin] (Isovaleryl-VV[Sta]A[Sta]-OH), the “inhibition” value in series [1] was “not significantly inhibited”.

On to `O=C(O)CN(CCN(CC(=O)O)CC(=O)O)CC(=O)O` [EDTA], for which the “inhibition” value in series [1] is reported as “not significantly inhibited”.

In the case of aprotinin, in series [1], the “inhibition” value is recorded as “obviously inhibited”.

For `CCOC(=O)c1ccc(OC(=O)CCCCCN=C(N)N)cc1.CS(=O)(=O)O` [gabexate mesilate], in the series on murine asthma model, the “allergen-induced airway inflammation and eosinophilia” value is “attenuates allergen-induced airway inflammation and eosinophilia”. Also, the “protein levels of IL-8 and MCP-1” value with IL-8 and MCP-1 proteins is listed as “significantly decreased”. Further, the survived cells result in the series on Beas2B cells [2] (1200 μg/mL, 24 hrs) is on record as “no survived cells”. For the same compound, the “IC50 of the cells to gabexate mesilate (cell viability)” value with Beas2B cells [2] (Beas2B cells, 24 hrs treatment, trypan blue, FIG. 5) was 600 µg/mL. Also, in series [3], the “expression of IL-8, MCP-1, GM-CSF and CCL20 genes induced by CraA” value is “obviously decreases the gene expression induced by CraA”. The “dissociation of Beas2B cells treated with CraA” value in the series with Beas2B cells [4] is on record as “reverse the dissociation of the cells”.
